Results on ten molecules are retold here after patent publication US20090155395A1 (SAGITTARIUS LIFE SCIENCE CORP., priority 2007, published 2009).

In brackets after ≈: the same amount, converted by molar mass. Where two headings read alike, the source gives them in different places.

For experiment [1], the system named is Propionibacterium acnes (ATCC 6919). Put plainly: Minimum inhibitory concentration (MIC), broth dilution method. In kind it is cell-based. On the procedure:
Minimum inhibitory concentration (MIC) was determined by the broth dilution method (Edwards, J. R. et. al., Antimicrob Agents Chemother. 1989; 33(2):215-22).
10 ul aliquot (1% DMSO final concentration) of serial dilutions were added into 0.99 ml of Reinforced Clostridial Medium (Oxiod, England.) with 1-5×10^5 CFU/ml of Propionibacterium acnes (ATCC 6919). […] Vehicle-control and active reference agents were used as blank and positive controls, respectively.

In experiment [2] the target is T1, Steroid 5-α-reductase isolated from liver of Wistar rat (Rattus norvegicus, UniProt P24008).
T1 construct: isolated from liver of Wistar rat by conventional centrifugation; from tissue; host or cells: liver of Wistar rat
T1 sequence (P24008 1-259): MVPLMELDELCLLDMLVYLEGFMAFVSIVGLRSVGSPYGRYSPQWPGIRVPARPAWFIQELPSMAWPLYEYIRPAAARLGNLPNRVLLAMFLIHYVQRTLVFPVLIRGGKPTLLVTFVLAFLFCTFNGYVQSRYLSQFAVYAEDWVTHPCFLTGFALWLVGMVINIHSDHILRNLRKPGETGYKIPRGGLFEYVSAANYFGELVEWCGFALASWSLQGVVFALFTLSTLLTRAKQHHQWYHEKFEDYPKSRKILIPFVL
As to the kind of experiment: Steroid 5-α-reductase inhibition (testosterone EIA). Type of experiment: biochemical. The settings on record: rat liver enzyme, 1 μM testosterone, 30 minutes. The source says: Steroid 5-α-reductase isolated from liver of Wistar rat by conventional centrifugation was used (Liang T, et. al., Endocrinology. 1985;117(2): 571-9).
The reaction was terminated by addition of 1 N HCl and neutrilized by 1 N NaOH. Testosterone was quantitated by using a Testosterone EIA Kit.

Experiment [3] can be described thus: Free radical scavenger, SOD mimetic activity (xanthine-xanthine oxidase / NBT reduction). In kind it is biochemical. The note with it: inhibition of NBT reduction, pH 10.5, 25° C., 20 minutes. On the procedure: (§1) The method to measure SOD (SOD, EC.1.15.1.1) activity was based on the inhibition of nitroblue tetrazolium reduction with xanthine-xanthine oxidase used as a superoxide generator (Sun Y, et. al., Clin. Chem. 1988; 34: 497-500).
(§2) Conversion of xanthine to uric acid +O^−+NBT to formazan was then determined by measurement of absorbance at 595 nm and percent inhibition by superoxide dismutase mimetic or test compound was calculated.

The target in experiment [4] is xanthine-xanthine oxidase (superoxide generator). Put plainly: Superoxide dismutase (SOD) mimetic activity, inhibition of nitroblue tetrazolium reduction. Type of experiment: biochemical. The note with it: 0.12 mM xanthine, 6 mU xanthine oxidase, 27 μM NBT, pH 10.5, 25° C., 20 minutes. Here is the method:
as §1, §2

In experiment [5] the target is T2, Human recombinant Cyclooxygenase-2 expressed in Sf21 cells (Homo sapiens, UniProt P35354).
T2 construct: purchased Sigma C-0858; host or cells: Sf21 cells
T2 sequence (P35354 18-604): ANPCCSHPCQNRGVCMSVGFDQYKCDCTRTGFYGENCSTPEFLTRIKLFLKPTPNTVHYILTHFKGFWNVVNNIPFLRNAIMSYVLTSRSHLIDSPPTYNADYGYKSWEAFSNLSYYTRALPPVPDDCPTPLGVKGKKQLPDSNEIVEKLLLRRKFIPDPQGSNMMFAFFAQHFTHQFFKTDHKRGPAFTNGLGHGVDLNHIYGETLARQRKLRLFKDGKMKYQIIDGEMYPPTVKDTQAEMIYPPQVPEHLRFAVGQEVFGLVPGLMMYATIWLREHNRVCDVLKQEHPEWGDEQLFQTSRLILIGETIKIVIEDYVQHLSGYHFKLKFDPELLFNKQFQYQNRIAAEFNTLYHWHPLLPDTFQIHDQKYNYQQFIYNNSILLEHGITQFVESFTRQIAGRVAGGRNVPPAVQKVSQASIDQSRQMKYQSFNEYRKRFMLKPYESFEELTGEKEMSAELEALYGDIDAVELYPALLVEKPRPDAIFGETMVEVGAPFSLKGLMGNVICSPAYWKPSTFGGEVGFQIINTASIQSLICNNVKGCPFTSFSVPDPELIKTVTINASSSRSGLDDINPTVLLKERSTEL
Put plainly: COX II inhibition (PGE2 EIA). In kind it is biochemical. The note with it: human recombinant enzyme, 0.3 μM arachidonic acid. On the procedure: The reaction was initiated by addition of 0.3 μM arachidonic acid for 5 minutes and terminated by further addition of 1 N HCl. Following centrifugation, substrate conversion to PGE2 was measured by an Amersham EIA kit.

[6] abbreviates: Cutibacterium acnes, ATCC6919, broth dilution, 37° C., 48 hours, anaerobic, read-out: MIC.

In general, MIC refers to the lowest concentration found to suppress growth. In the case of `CC1COc2c(N3CCN(C)CC3)c(F)cc3c(=O)c(C(=O)O)cn1c23` (centres unmarked) [Ofloxacin], the MIC in experiment [1] (setting [6]) was 1 µg/mL (≈ 2.77 µM).

Usually IC50 stands for the midpoint of a concentration-inhibition curve. Molecule `CCCCC/C=C\C/C=C\C/C=C\CCCCC(=O)O` [γ-Linolenic Acid] had an IC50 in experiment [2] of 14 µM.

As to `O=C(O[C@@H]1Cc2c(O)cc(O)cc2O[C@@H]1c1ccc(O)c(O)c1)c1cc(O)c(O)c(O)c1` [(−)-Epicatechin gallate], in experiment [3], the “IC50, SOD mimetic activity” value was found to be 2.698 µg/mL (≈ 6.1 µM). Moreover, the IC50 in experiment [4] was 2.698 µg/mL (≈ 6.1 µM).

As to Gentamicin, the MIC in experiment [1] (broth dilution, 37° C., 48 hours, anaerobic) was 30 µg/mL.

As for `CN[C@H](CC(C)C)C(=O)N[C@H]1C(=O)N[C@@H](CC(N)=O)C(=O)N[C@H]2C(=O)N[C@H]3C(=O)N[C@H](C(=O)N[C@H](C(=O)O)c4cc(O)cc(O)c4-c4cc3ccc4O)[C@H](O)c3ccc(c(Cl)c3)Oc3cc2cc(c3O[C@@H]2O[C@H](CO)[C@@H](O)[C@H](O)[C@H]2O[C@H]2C[C@](C)(N)[C@H](O)[C@H](C)O2)Oc2ccc(cc2Cl)[C@H]1O` [Vancomycin], in experiment [1] (Cutibacterium acnes, ATCC6919, 48 h), the MIC was 1 µg/mL (≈ 0.69 µM).

Consider “Superoxide dismutase (SOD): standard reference agent used, Human SOD MW = 2 × 28.3 KDa”, for which the “IC50, SOD mimetic activity” value in experiment [3] amounted to 0.475 µg/mL.

With `CC1(C)S[C@@H]2[C@H](NC(=O)[C@H](N)c3ccccc3)C(=O)N2[C@H]1C(=O)O` [Ampicillin], the MIC in experiment [1] (setting [6]) came to 0.1 µg/mL (≈ 0.286 µM).

For the molecule `O=C(O)c1cccnc1Nc1cccc(C(F)(F)F)c1` [Niflumic acid], in experiment [5], the IC50 is 691 nM.

As to `CC(C)(C)NC(=O)[C@H]1CC[C@H]2[C@@H]3CC[C@H]4NC(=O)C=C[C@]4(C)[C@H]3CC[C@]12C` [Finasteride], the IC50 in experiment [2] was 0.025 µM.

On to `CN(C)[C@@H]1C(O)=C(C(N)=O)C(=O)[C@@]2(O)C(O)=C3C(=O)c4c(O)cccc4[C@@](C)(O)[C@H]3C[C@@H]12` [Tetracycline], for which the MIC in experiment [1] (setting [6]) came out at 1 µg/mL (≈ 2.25 µM).
